Where two headings read alike, the source gives them in different places. Where only a bound is given, the exact number is not on record here.

The subject of one assay is human neutrophils. In words: Inhibition of superoxide (O₂⁻) generation from neutrophils. To be noted: Neutrophil. The class given is cell-based. The text has this: (§1) The one assay provides IC₅₀'s for the inhibition of superoxide generation. DeChatelet, L. R., Shirley, P. S. and Johnson, R. B. 1976. Effect of phorbol myristate acetate on the oxidative metabolism of human polymorphonuclear leukocytes. Blood 47:545-554. The other assay is a generally recognized in vivo assay to show activity useful for treating ARDS. The in vivo assay is described in J. Clin. Invest., Vol. 69, May 1982, pp 1126-1135.
The activity for each of these compounds as numbered above is expressed as IC₅₀'s for the inhibition of superoxide generation and is shown in the following Table A: TABLE A
Further, activity for compounds of examples noted in the following Table A₁ likewise show IC₅₀'s for the inhibition of superoxide generation. TABLE A1

Assay [1] deals with CVF Induced Lung Injury in Rats. As to the kind of experiment: Inhibition of cobra venom factor (CVF) induced lung injury in rats (in vivo ARDS assay). The conditions noted are these: for Lung Injury (x ± SEM): saline control 0.20 ± 0.01, CVF alone 1.45 ± 0.19.
Excerpt: as §1
Accordingly, the compounds of the Formula II are now found to be particularly useful for treating ARDS shown by the inhibition of cobra venom factor (CVF) induced lung injury in rats using the Compound No. 1 above in the in vivo assay shown as follows in Table B: TABLE B

[2] abbreviates: Table A, read-out: IC₅₀ (µM) Inhibition of O₂⁻ generation from neutrophils.
Setting [3] is: Table A1, read-out: IC₅₀ (µM) Inhibition of O₂⁻ generation from neutrophils.
Setting [4] is: given intravenously (20 mg/kg) 10 minutes before intravenous injection of CVF.
The mark [5] stands for this setting: injected intraperitoneally (20 mg/kg) 20 minutes before CVF.

With `COc1ccc2c(OC(C)C)c(C(=O)Nc3nnn[nH]3)sc2c1` [compound 2, 6-Methoxy-3-(1-methylethoxy)-N-1H-tetrazol-5-yl-benzo[b]thiophene-2-carboxamide], the IC50 in the assay on human neutrophils (setting [2]) turned out to be 37 µM.
On to `COc1cc2sc(C(=O)Nc3nnn[nH]3)c(OCc3ccccc3)c2cc1OC` [Example C21A, 5,6-Dimethoxy-3-(phenylmethoxy)-N-1H-tetrazol-5-yl-benzo[b]thiophene-2-carboxamide], for which the IC50 in the assay with human neutrophils (setting [3]) came out at 40 µM.
Still for that read-out and setting: for `COc1ccc2c(Oc3ccccc3)c(C(=O)Nc3nnn[nH]3)sc2c1` [Example C21D, 6-Methoxy-3-phenoxy-N-1H-tetrazol-5-yl-benzo[b]thiophene-2-carboxamide] the value was more than 100 µM.
Regarding `COc1ccc2sc(C(=O)Nc3nnn[nH]3)c(OC(C)C)c2c1` [Compound No. 1, 5-Methoxy-3-(1-methylethoxy)-N-1H-tetrazol-5-yl-benzo[b]thiophene-2-carboxamide], in the assay with human neutrophils (setting [2]), the IC50 is 19 µM. In addition, in assay [1] (setting [4]), the “Protection % Inhibition of Injury” value was determined as 76% and the “Lung Injury (x ± SEM)” value amounted to 0.48 ± 0.08. In assay [1] (setting [5]), the “Protection % Inhibition of Injury” value was 58% and the “Lung Injury (x ± SEM)” value is recorded as 0.73 ± 0.06.
With `COc1cc2sc(C(=O)Nc3nnn[nH]3)c(Oc3ccccc3)c2cc1OC` [Example C21], the IC50 in the assay with human neutrophils (setting [3]) is 6 µM.
For `COc1ccc2sc(C(=O)Nc3nnn[nH]3)c(SC(C)C)c2c1` [compound 3, 5-Methoxy-3-[(1-methylethyl)thio-N-1Htetrazol-5-yl]-benzo[b]thiophene-2-carboxamide], in the assay on human neutrophils (setting [2]), the IC50 came out at 23 µM.
Same read-out and setting: for `COc1ccc2sc(C(=O)Nc3nnn[nH]3)c(OCc3ccccc3)c2c1` [compound 5, 3-Benzyloxy-5-methoxy-N-1H-tetrazol-5-yl-benzo[b]thiophene-2-carboxamide] the value was 23 µM.
The same measure, in the same setting: for `COc1ccc2c(OC(C)C)c(C(=O)Nc3nnn[nH]3)oc2c1` [compound 4, 6-Methoxy-3-(1-methylethoxy)-N-1H-tetrazol-5-yl-2-benzofurancarboxamide] the value was 75 µM.
On to `CC(C)Oc1c(C(=O)Nc2nnn[nH]2)sc2ccc(O)cc12` [Example C20A, 3-(1-Methylethoxy)-5-hydroxy-N-1H-tetrazol-5-yl-benzo[b]-thiophene-2-carboxamide], for which the IC50 in the assay on human neutrophils (setting [3]) was determined as 48 µM.
As for `COc1ccc2sc(C(=O)Nc3nnn[nH]3)c(Oc3ccccc3)c2c1` [compound 6, 5-Methoxy-3-phenoxy-N-1H-tetrazol-5-yl-benzo[b]thiophene-2-carboxamide], in the assay on human neutrophils (setting [2]), the IC50 was determined as 10 µM.

For the origin of these results see EP0299457A2, “Novel benzothiophenes having antiallergic activity and both novel and other selected benzothiophenes having activity for treating acute respiratory distress syndrome” (WARNER-LAMBERT COMPANY, priority 1987, dated 1989).
